From paper PMC7539012, “Hyperphosphorylated tau aggregation and cytotoxicity modulators screen identified prescription drugs linked to Alzheimer's disease and cognitive functions” (Scientific Reports, 2020) come the findings set out here.

In the test the test system is T1, 1N4R p-tau.
T1 construct: made in house; host or cells: E. coli (PIMAX system)
Nature of the test: p-tau aggregation modulator screen of 1280-compound library (ThS fluorescence net change over 16 h).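 Note: 30 µM compound with 6 µM p-tau over 16 h.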 The class given is biochemical.

Setting [1] is: 1280-compound library screen, […].
Setting [2] is: p-tau aggregation modulator screen of the compound library, ThS fluorescence net change.
The mark [3] stands for this setting: library screen, ThS fluorescence net change over 16 h with p-tau.
[4] abbreviates: 1280-compound library screen, ThS fluorescence net change over 16 h.
Setting [5] is: p-tau aggregation modulator screen of 1280-compound library, ThS fluorescence net change.

Where a name gives a salt, the structure may show the parent alone. Read-outs that look alike come from different tables or passages of the source.

Compound `O=[N+]([O-])O[C@H]1CO[C@H]2[C@@H]1OC[C@H]2O[N+](=O)[O-]` [Isosorbide dinitrate] showed a ThS net change under setting [1] of 405.
Regarding `CC1/C=C/C=C/CC/C=C/C=C/C=C/C=C/C(O[C@@H]2O[C@H](C)[C@@H](O)[C@H](N)[C@@H]2O)CC(O)C(C(=O)O)C(O)CC(=O)CC(O)C(O)CCC(O)CC(O)CC(O)CC(=O)OC(C)C(C)C1O` (some centres unmarked) [Nystatine], the ThS net change under setting [2] amounted to 446.
Under setting [3], `CC(C)N1CCN(c2ccc(OCC3COC(Cn4cncn4)(c4ccc(Cl)cc4Cl)O3)cc2)CC1` (centres unmarked) [Terconazole] showed a ThS net change of 326.
In turn, `O=C(c1ccccc1)c1ccc2n1CCC2C(=O)O` (centres unmarked) [Ketorolac tromethamine] had a ThS net change under setting [4] of 382.
In turn, `O=C(O)CCCc1ccc(N(CCCl)CCCl)cc1` [Chlorambucil] gave a ThS net change under setting [1] of 386.
For `CCN1CCC[C@H]1CNC(=O)c1c(OC)ccc(Br)c1OC.Cl` [Remoxipride Hydrochloride], the ThS net change under setting [2] worked out at 460.
Same read-out and setting: under `CC1(C)[C@@H](OC(=O)CCC(=O)O)CC[C@]2(C)[C@H]3C(=O)C=C4[C@@H]5C[C@@](C)(C(=O)O)CC[C@]5(C)CC[C@@]4(C)[C@]3(C)CC[C@@H]12` [Carbenoxolone disodium salt] stands 460.
Compound `CC(C)NCC(O)COc1ccc(CCOCC2CC2)cc1` (centres unmarked) [Betaxolol hydrochloride] displayed a ThS net change under setting [5] of 373.
Consider `Cc1cccn2c(=O)c(-c3nnn[nH]3)cnc12` [Pemirolast potassium], for which the ThS net change amounted to 446.
Consider `C[C@H]1NC(=O)NC1=O` [Methylhydantoin-5-(D)], for which the ThS net change under setting [4] was 384.
For `CN1CCN(CC(=O)N2c3ccccc3C(=O)Nc3cccnc32)CC1` [Pirenzepine dihydrochloride], under setting [3], the ThS net change was determined as 322.
With `CC[N+](CC)(CC(=O)Nc1c(C)cccc1C)Cc1ccccc1` [Denatonium benzoate], the ThS net change is reported as 448.
The compound `Cl.O.O.O=C1CC[C@@]2(O)[C@H]3Cc4ccc(O)c5c4[C@@]2(CCN3CC2CC2)[C@H]1O5` [Naltrexone hydrochloride dihydrate] yielded a ThS net change under setting [1] of 408.
Take `CCOC(=O)OC(C)OC(=O)[C@@H]1N2C(=O)[C@@H](NC(=O)[C@H](N)c3ccccc3)[C@H]2SC1(C)C` (some centres unmarked) [Bacampicillin hydrochloride]: the ThS net change under setting [5] is 371.
Under setting [4], `Cn1c(=O)c2[nH]cnc2n(C)c1=O` [Aminophylline] yielded a ThS net change of 403.
On to `OC(CCCN1CCCCC1)(c1ccccc1)c1ccccc1` [Diphenidol hydrochloride], for which, under setting [5], the ThS net change is 345.
Under setting [4], `CCCOc1ccc2nc(NC(=O)OC)[nH]c2c1` [Oxibendazol] registered a ThS net change of 391.
`CO[C@@]1(NC(=O)CSCC#N)C(=O)N2C(C(=O)O)=C(CSc3nnnn3C)CS[C@@H]21` [Cefmetazole sodium salt] showed a ThS net change under setting [2] of 468.
The same measure, in the same setting: under `COc1cc([C@@H]2c3cc4c(cc3[C@@H](O[C@@H]3O[C@@H]5CO[C@@H](C)O[C@H]5[C@H](O)[C@H]3O)[C@H]3COC(=O)[C@H]23)OCO4)cc(OC)c1O` [Etoposide] stands 413.
`Cc1cc(=O)oc2cc(O)ccc12` [Hymecromone]: the ThS net change under setting [5] was 357.
Compound `CCCNCC(O)COc1ccccc1C(=O)CCc1ccccc1` (centres unmarked) [Propafenone hydrochloride] came in with a ThS net change under setting [3] of 317.
For the compound `CC(=O)N[C@@H](CS)C(=O)O` [Acetylcysteine], the ThS net change under setting [2] is 423.
Same read-out and setting: under `CNCC(O)c1ccc(O)c(O)c1` (centres unmarked) [Racepinephrine HCl] stands 453; under `CNC(=O)c1c(I)c(C(=O)NCC(=O)Nc2c(I)c(C(=O)O)c(I)c(C(=O)NCCO)c2I)c(I)c(N(C)C(C)=O)c1I` [Ioxaglic acid], 442.
`COCC1=C(C(=O)OC(C)OC(=O)OC(C)C)N2C(=O)[C@@H](NC(=O)/C(=N\OC)c3csc(N)n3)[C@H]2SC1` (some centres unmarked) [Cefpodoxime proxetil] came in with a ThS net change under setting [2] of 454.
Take `C=C1c2cccc(O)c2C(=O)C2=C(O)[C@]3(O)C(=O)C(C(N)=O)=C(O)[C@@H](N(C)C)[C@@H]3[C@@H](O)[C@H]12` [Methacycline hydrochloride]: the ThS net change under setting [2] was 537.
Regarding `CN1CCCN=C1/C=C/c1cccc(O)c1.CN1CCCN=C1/C=C/c1cccc(O)c1.O=C(O)c1cc2ccccc2c(Cc2c(O)c(C(=O)O)cc3ccccc23)c1O` [Oxantel pamoate], the ThS net change under setting [3] was 208.
Under setting [2], `CC(C)Oc1ccc2c(=O)c(-c3ccccc3)coc2c1` [Ipriflavone] displayed a ThS net change of 429.
In turn, `NS(=O)(=O)c1cc2c(cc1Cl)NCNS2(=O)=O` [Hydrochlorothiazide] yielded a ThS net change under setting [4] of 384.
On the same count and under the same terms, for `COc1cc(N)c(Cl)cc1C(=O)NC1CCN(CCCOc2ccc(F)cc2)CC1OC` (centres unmarked) [Cisapride] the value was 397.
With `CN(Cc1ccc(C(C)(C)C)cc1)Cc1cccc2ccccc12` [Butenafine Hydrochloride], the ThS net change under setting [2] stood at 436.
The compound `Fc1ccc(C(c2ccc(F)cc2)N2CCN(C/C=C/c3ccccc3)CC2)cc1` [Flunarizine dihydrochloride] registered a ThS net change under setting [5] of 370.
Regarding `CCc1nc(N)nc(N)c1-c1ccc(Cl)cc1` [Pyrimethamine], the ThS net change under setting [5] is recorded as 354.
For `CC(C)NC[C@@H](O)COc1cccc2ccccc12.Cl` [(R)-Propranolol hydrochloride], the ThS net change is recorded as 416.
Under setting [4], `CCCc1cc(C(N)=S)ccn1` [Prothionamide] came in with a ThS net change of 412.
Consider `CCC(COC(=O)c1cc(OC)c(OC)c(OC)c1)(c1ccccc1)N(C)C` (centres unmarked) [Trimebutine], for which, under setting [1], the ThS net change amounted to 406.
Turning to `CC(=O)[N-]S(=O)(=O)c1ccc(N)cc1.O.[Na+]` [Sulfacetamide sodic hydrate], under setting [1], the ThS net change was found to be 393.
Take `CN1CCN(c2c(F)cc3c(=O)c(C(=O)O)cn(CCF)c3c2F)CC1` [Fleroxacin]: the ThS net change under setting [2] is on record as 424.
For the compound `NC(=O)c1cccnc1` [Nicotinamide], under setting [4], the ThS net change was 406.
Compound `CCN[C@H]1CN(CCCOC)S(=O)(=O)c2sc(S(N)(=O)=O)cc21` [Brinzolamide] displayed a ThS net change under setting [5] of 348.
As to `CN1CCN(CCCN2c3ccccc3Sc3ccc(Cl)cc32)CC1` [Prochlorperazine dimaleate], the ThS net change under setting [5] is on record as 357.
`COc1ccc(C(=O)CC(=O)c2ccc(C(C)(C)C)cc2)cc1` [Avobenzone] showed a ThS net change under setting [3] of 250.
On the same count and under the same terms, under `N[C@@H](Cc1cc(I)c(Oc2ccc(O)c(I)c2)c(I)c1)C(=O)O` [Liothyronine] stands 298.
Regarding `C#C[C@]1(OC(C)=O)CC[C@H]2[C@@H]3CCC4=C[C@@H](OC(C)=O)CC[C@@H]4[C@H]3CC[C@@]21C` [Ethynodiol diacetate], the ThS net change under setting [5] turned out to be 355.
In turn, `CC(=O)[C@H]1CC[C@H]2[C@@H]3CC=C4C[C@@H](O)CC[C@]4(C)[C@H]3CC[C@]12C` [Pregnenolone] displayed a ThS net change under setting [2] of 482.
With `CC(COc1ccccc1)N(CCCl)Cc1ccccc1` (centres unmarked) [Phenoxybenzamine hydrochloride], the ThS net change worked out at 560.
Compound `O=C1c2cccc3c2[C@H](CCC3)CN1[C@@H]1CN2CCC1CC2` [Palonosetron hydrochloride] registered a ThS net change under setting [2] of 458.
